{"source": "patent US5366980A", "about": "“Use of dextromethorphan and an oxidase inhibitor to treat dermatitis” (priority 1993, dated 1994)", "key": {"ALS patients [1]": {"tested_on": "ALS patients", "details": "DM up to about 300 mg/day or higher; quinidine in prolonged QT interval; cited from earlier work"}, "emotional lability": {"tested_on": "emotional lability", "experiment": "Suppression of emotional lability in ALS patients", "assay_type": "in vivo, human", "from_the_text": "Emotional lability is a complex problem in which patients suffering from neurological damage (typically due to a stroke or head injury or a neurologic disease such as ALS or Alzheimer's disease) become unable to control spasmodic emotional outbursts such as explosive laughing or uncontrollable weeping. This discovery involving emotional lability is discussed in U.S. Pat. No. 5,206,248, which was also invented by the Applicant; the contents of that patent are incorporated by reference.\n(§1) All patients who became involved in the study initially received DM and/or quinidine alone, to ensure that these drugs would not adversely affect them. The drugs were coadministered only after a tolerance and/or dosage range for one drug had been established for a patient."}, "dermatitis": {"tested_on": "dermatitis", "experiment": "Suppression of dermatitis (lichen planus; severe intermittent dermatitis) in patients", "assay_type": "in vivo, human", "details": "patients treated with DM alone", "from_the_text": "Suppression of Dermatitis\nDuring an initial examination, the Applicant discovered that patient two, a Caucasion person who was suffering from ALS, suffered from a severe dermatologic condition involving lesions which appear in relatively small purplish patches (\"polygonal papules\"). Their condition had recently been diagnosed as lichen planus. The etiology is unknown, although a variety of drugs reportedly can aggravate this condition. The patient reported that the lesions were severely itchy, and they had been suffering from it for roughly ten years. They had been prescribed a number of drugs (including various steroids such as prednisone) in an effort to control the itching; the most recent prescription was \"Doxepin,\" a tricyclic antidepressant. None of those agents offered much relief.\nThe patient began an initial treatment of quinidine alone (150 mg/day) for a week.\nThe specialist carried out a preliminary test involving DM and quinidine on a person who suffered from severe but intermittent dermatitis."}, "ALS patients [2]": {"tested_on": "ALS patients", "experiment": "Tolerance and side effects in ALS patients and control subjects", "assay_type": "in vivo, human", "details": "ALS patients and controls; drug(s) as labelled", "from_the_text": "as §1\nHowever, quinidine is not pharmaceutically acceptable by all patients."}, "debrisoquin hydroxylase [3]": {"tested_on": "debrisoquin hydroxylase", "experiment": "Urinary DM/DR ratio after oral dextromethorphan without and with quinidine (Example 1)", "assay_type": "in vivo, human", "details": "ALS patients", "experimental": "Since the research that led to this invention was done by a neurologist who was initially interested in finding out whether DM might be able to retard the progress of ALS, the initial studies were done on patients suffering from ALS, most of whom are adults more than 50 years old.\nSix patients suffering from ALS were administered orally a single 60 mg dextromethorphan dose. Several hours later, a urine sample was collected, and the urine concentrations of dextromethorphan (DM) and dextrorphan (DR) were measured as described below to determine a DM/DR ratio. […] In a different week, 60 mg of DM and 150 mg of quinidine were orally administered to the same patients, and urinary DM and DR levels and DM/DR ratios were determined again.\nDM and DR urinary levels without quinidine were determined by adding […] of thebaine as an internal standard to 1 mL of urine. To this was added 2000 units of beta-glucuronidase in 1 mL of acetate buffer (0.1M, pH 5.0). The mixture was incubated for 18 hours at 37° C. and then extracted by adding 1 mL of phosphate buffer (pH 12, 0.10M) and 7 mL of n-butanol/hexane (10:90 v/v). After mixing and centrifugation, the organic layer was transferred to a clean tube and acidified with 400 uL of 0.01 N HCL. 20 microliters (uL) of aqueous phase was injected into a high performance liquid chromatography (HPLC) system. The HPLC used a phenyl column equilibrated with a mobile phase of acetonitrile:water (51:49, v/v) containing 10 mM KHPO4, 10 mM hexane sulfonic acid, pH 4.0 (flow rate 1.2 mL/min). Detection of thebaine, dextromethorphan and dextrorphan was achieved by fluorescence (Kratos FS-980 Fluorometer) with an excitation wavelength of 228 nm and no emission cutoff filter.\nA gas chromatograph/mass spectroscopy (gc/ms) assay was employed for determining dextromethorphan and dextrorphan levels in the presence of quinidine. Briefly, 0.5 ml urine samples were spiked with 500 nanograms (ng) of dimethacrine. The urine pH was adjusted to 5.0 with 0.1M acetate buffer (usually about 1.0 ml), and beta-glucuronidase was added (2000 units/ml urine). […]"}, "sigma receptors": {"tested_on": "sigma receptors", "details": "reportedly; cited from earlier work"}, "[4]": {"details": "most people; cited from earlier work"}, "[5]": {"experiment": "Plasma concentration of DM 10-12 hours after oral dosing, without and with quinidine (Examples 2 and 3)", "assay_type": "in vivo, human", "details": "10-12 hours, one value per patient", "experimental": "Plasma Concentrations of DM\nFive patients were orally administered 120 mg of DM, with no co-administration of quinidine. Between 10 and 12 hours later, blood was sampled, blood plasma was isolated by centrifugation, and the plasma was analyzed to determine the DM concentration using the thebaine/HPLC method.\nDuring a different week, the same patients were orally administered 60 mg of DM (half the control dosage) and 150 mg of quinidine. Between 10 and 12 hours later, blood was sampled and the plasma was analyzed for DM using thebaine/HPLC.\nAdditional studies were undertaken using a range of dosages of DM to establish a dose-response curve that correlates the quantity of DM orally administered to a patient with blood plasma concentrations 10 to 12 hours later (determined as described in Example 2). All patients received 150 mg of quinidine daily. The results of those studies are shown in graphical form in FIG. 2, with mean values shown as open squares and standard deviation ranges shown by vertical bars. The ascending line through the median values is a linear approximation; a curve based on more extensive data would probably show a horizontal asymptote."}, "[6]": {"tested_on": "N-methyl-D-aspartate (NMDA) receptors", "details": "reportedly; cited from earlier work"}, "[7]": {"tested_on": "neuronal calcium channels", "details": "reportedly, Carpenter et al 1988, cited from earlier work"}, "ALS": {"tested_on": "ALS", "experiment": "Effect on progress of ALS", "assay_type": "in vivo, human", "details": "loss of strength, slurring of speech, other muscular symptoms", "from_the_text": "As mentioned above, DM is being studied as a possible treatment for neurodegenerative diseases such as Parkinson's disease, Alzheimer's disease, and ALS. Accordingly, the Applicant, a neurologist who specializes in working with ALS patients, undertook a study of DM to determine whether it might be able to retard the progress of ALS.\nHowever, during the course of that study, other important findings emerged, as discussed below."}, "debrisoquin hydroxylase [8]": {"tested_on": "debrisoquin hydroxylase", "experiment": "Urinary DM/DR ratio with other antioxidants in specific patients (Example 5)", "details": "urine, HPLC; preliminary; one value per patient", "excerpt": "The second method involves sampling body fluids to compare the concentrations of DM and its primary metabolite, dextrorphan (DR). Although blood concentrations can be directly evaluated by drawing blood samples if desired, an easier and painless approach is to analyze urine samples. Blood or urine samples can be processed using methods such as high performance liquid chromatography (HPLC), as described in Example 5. […] The height of each peak, or the area under each peak, will indicate the quantity of each compound in the blood or urine sample. The heights of the DM and DR peaks are then divided, to determine the DM/DR ratio. The ratio which occurs after administration of a candidate antioxidant drug is compared to the DM/DR ratio in the same patient under control conditions (i.e., before administration of any antioxidant).\nPreliminary Analysis of Other Antioxidants\nTo further evaluate that possibility, the Applicant arranged for chemical analyses of urine samples, using HPLC, in the labs of an independent investigator."}}, "note": "Values joined by “and” are separate entries in the source; they are usually repeats but may differ in a detail not shown here. Identical values can stand only once. Like-named read-outs stand apart in the source and are kept apart here."}
{"smiles": "COc1ccc2c(c1)[C@@]13CCCC[C@H]1[C@@H](C2)N(C)CC3", "note": "[DM, (+)-3-methoxy-N-methylmorphinan]", "values": [{"measurement": "Adverse effects (general knowledge)", "setting": "ALS patients [1]", "value": "any adverse effects (such as dizziness or nausea) usually disappear quickly when the dosage is lowered"}, {"measurement": "Reduction of emotional lability symptoms", "setting": "emotional lability", "value": "not observed in any patients who received DM alone"}, {"measurement": "Therapeutic benefits (emotional lability and dermatitis)", "setting": "dermatitis", "value": "not detectable"}, {"measurement": "Adverse side effects", "setting": "ALS patients [2]", "value": "no ill effects"}, {"measurement": "Metabolism of DM in ALS patients vs healthy adults", "setting": "debrisoquin hydroxylase [3]", "value": "No difference in the metabolism"}, {"measurement": "Activity at sigma receptors", "setting": "sigma receptors", "value": "sigma agonists"}, {"measurement": "Disappearance from the bloodstream", "setting": "[4]", "value": "disappears fairly rapidly from the bloodstream"}, {"measurement": "DM plasma level, with quinidine", "setting": "[5]; 60 mg DM once oral + quinidine 150 mg", "value": "33 ng/mL and 29.7 ng/mL and 29.0 ng/mL and 28.8 ng/mL and 45.6 ng/mL"}, {"measurement": "DM plasma level, no quinidine", "setting": "[5]; 120 mg/day DM oral, quinidine dose 0", "value": "9.3 ng/mL and 16.5 ng/mL and 6.05 ng/mL"}, {"measurement": "Activity at NMDA receptors", "setting": "[6]", "value": "NMDA antagonists"}, {"measurement": "Activity at neuronal calcium channels", "setting": "[7]; listed as Dextromethorphan", "value": "suppress neural activity mediated by neuronal calcium channels"}, {"measurement": "Activity at neuronal calcium channels", "setting": "[7]; listed as dextromethorphan", "value": "calcium channel antagonists"}, {"measurement": "Slowing of progressive ALS symptoms", "setting": "ALS", "value": "not able to slow down the progressive loss of strength, slurring of speech, and other muscular symptoms"}, {"measurement": "DM/DR ratio, no antioxidant", "setting": "debrisoquin hydroxylase [8]", "value": "0.02 and 0.00 and 0.06 and 0.03"}]}
